Reference: US12497405B2, “Bicyclic heterocycle compounds methods of use thereof for the treatment of herpes viruses” (Merck Sharp & Dohme LLC, priority 2019, dated 2025)

What was measured:
Assay type in all cases: cell-based
HSV1 = assay: Viral qPCR assay, HSV1; conditions: Human alphaherpesvirus 1, 72 h, infected cells, viral genome copies by qPCR normalized to PPIA, read-out: HSV1 Cell EC50
Method: (§1) MRC5 cells, Vero cells, and MeWo cells were obtained from ATCC, and were maintained at 37° C./5% CO2/90% relative humidity in Minimal Essential Medium with 10% fetal bovine serum, […] L-glutamine, 100 units/ml penicillin and 100 ug/ml streptomycin. Assay plates were prepared by dispensing compounds dissolved in DMSO into wells of 384 well collagen-coated plates using an ECHO acoustic dispenser. Each test compound was tested in a 10-point, serial 3-fold dilution. Controls included uninfected cells and infected cells treated only with DMSO. Assays were initiated by mixing selected cells, in suspension, with virus, and dispensing 50 μl/well infected cells to pre-plated compounds. Plates were incubated at 37° C./5% CO2/90% relative humidity for ˜72 hrs to permit genomic replication, and infected cells were lysed by the addition of an equal volume of lysis buffer (10 mM Tris-HCl, pH8, 50 mM KCl, 2 mM MgCl2, 0.45% NP-40, 0.45% Tween-20, and 100 µg/ml proteinase K). An aliquot of the lysate was then transferred to a 384-well PCR plate and incubated at 56° C. for 1 hour, and then at 95° C. for 10 minutes. Levels of the selected viral gene and of the cellular control, PPIA, were measured in separate 10 μl qPCR assays using TaqMan® Gene Expression Master Mix (Applied Biosystems), and an 7900HT Fast Real-Time PCR System with 384-Well Block Module. 7-point, serial 10-fold dilutions of a plasmid standard were run on each plate to generate a standard curve, and genome copies numbers were calculated by plotting experimental Ct onto linear regression of the standard curve. Viral genome copy numbers were normalized by cellular control copy number, and compound effects were normalized to the window defined by the controls. Calculated % effects were fit using a 4-parameter algorithm, and EC50 was reported.

CMV = assay: Viral qPCR assay, CMV; conditions: Human betaherpesvirus 5, 72 h, infected cells, viral genome copies by qPCR normalized to PPIA, read-out: CMV Cell EC50
Method: as §1

HSV2 = assay: Viral qPCR assay, HSV2; conditions: Human alphaherpesvirus 2, 72 h, infected cells, viral genome copies by qPCR normalized to PPIA, read-out: HSV2 Cell EC50
Method: as §1

| Compound | EC50 (HSV1) [nM] | EC50 (CMV) [nM] | EC50 (HSV2) [nM] |
| --- | --- | --- | --- |
| O=C1OC[C@@H]2C[C@@H](Oc3cc4c(=O)n(Cc5ccc(Cl)cc5)c(CN5CCOCC5)nc4cc3-c3cnn(C(F)F)c3)CCN12 [Example 125] | 3830 | 4240 | 1280 |
| O=C1OC[C@@H]2C[C@@H](Oc3cc4c(=O)n(Cc5ccc(Cl)cc5)c(OC5CCOCC5)nc4cc3-c3cnn(C(F)F)c3)CCN12 [Example 126] | 372 | 205 | 140 |
| Cc1nc2cc(-c3cccnn3)c(O[C@H]3CCN4C(=O)OC[C@@H]4C3)cc2c(=O)n1Cc1ccc(Cl)cc1 [Example 127] | 484 | 280 | 793 |
| Cc1cnc(-c2cc3nc(C)n(Cc4ccc(Cl)cc4)c(=O)c3cc2O[C@H]2CCN3C(=O)OC[C@@H]3C2)cn1 [Example 128] | 217 | 114 | 131 |
| O=C1OC[C@@H]2C[C@@H](Oc3cc4c(=O)n(Cc5ccc(Cl)cc5)c(CN5CCC5)nc4cc3-c3cnn(C(F)F)c3)CCN12 [Example 129] | 178 | 115 | 135 |
| Cc1nc2cc(-c3ccncn3)c(O[C@H]3CCN4C(=O)OC[C@@H]4C3)cc2c(=O)n1Cc1ccc(Cl)cc1 [Example 130] | 167 | 190 | 287 |
| Cc1nccc(-c2cc3nc(C)n(Cc4ccc(Cl)cc4)c(=O)c3cc2O[C@H]2CCN3C(=O)OC[C@@H]3C2)n1 [Example 131] | 223 | 102 | 157 |
| COc1cnnc(-c2cc3nc(C)n(Cc4ccc(Cl)cc4)c(=O)c3cc2O[C@H]2CCN3C(=O)OC[C@@H]3C2)c1 [Example 132] | 1470 | 1470 | 822 |
| O=C1OC[C@@H]2C[C@@H](Oc3cc4c(=O)n(Cc5ccc(Cl)cc5)c(CNCC(F)(F)F)nc4cc3-c3cnn(C(F)F)c3)CCN12 [Example 133] | 238 | 167 | 106 |
| O=C1OC[C@@H]2C[C@@H](Oc3cc4c(=O)n(Cc5ccc(Cl)cc5)c(OCCN5CCC5)nc4cc3-c3cnn(C(F)F)c3)CCN12 [Example 134] | 171 | 119 | 98 |
| O=C1OC[C@@H]2C[C@@H](Oc3cc4c(=O)n(Cc5ccc(Cl)cc5)c(OCC5CC5)nc4cc3-c3cnn(C(F)F)c3)CCN12 [Example 135] | 799 | 939 | 649 |
| Cc1cnnc(-c2cc3nc(C)n(Cc4ccc(Cl)cc4)c(=O)c3cc2O[C@H]2CCN3C(=O)OC[C@@H]3C2)c1 [Example 136] | 1720 | 826 | 2150 |
| CC(C)(O)Cc1nc2cc(-c3cnn(C(F)F)c3)c(O[C@H]3CCN4C(=O)OC[C@@H]4C3)cc2c(=O)n1Cc1ccc(Cl)cc1 [Example 140] | 4310 | 2660 | 3760 |
| O=C1OC[C@@H]2C[C@@H](Oc3cc4c(=O)n(Cc5ccc(Cl)cc5)c(N5CCOCC5)nc4cc3-c3cnn(C(F)F)c3)CCN12 [Example 142] | 154 | 129 | 38 |
| Cc1nc2cc(-c3cnc(N)nn3)c(O[C@H]3CCN4C(=O)OC[C@@H]4C3)cc2c(=O)n1Cc1ccc(Cl)cc1 [Example 144] | 189 | 137 | 319 |
| O=C1OC[C@@H]2C[C@@H](Oc3cc4c(=O)n(Cc5ccc(Cl)cc5)c(N5CC(O)C5)nc4cc3-c3cnn(C(F)F)c3)CCN12 [Example 145] | 108 | 101 | 112 |
| Cc1nc2cc(-c3nn4ccnc4s3)c(O[C@H]3CCN4C(=O)OC[C@@H]4C3)cc2c(=O)n1Cc1ccc(C#N)cc1 [Example 146] | 93 | 67 | 143 |
| COc1nc2cc(-c3cnn(C(F)F)c3)c(O[C@H]3CCN4C(=O)OC[C@@H]4C3)cc2c(=O)n1Cc1ccc(Cl)cc1 [Example 148] | 213 | 275 | 78 |
| O=C1OC[C@@H]2C[C@@H](Oc3cc4c(=O)n(Cc5ccc(Cl)cc5)c(O)nc4cc3-c3cnn(C(F)F)c3)CCN12 [Example 150] | 53 | 79 | 88 |
